Measurements as given in the NIST ThermoML archive (doi:10.1021/je800594e).
Numbers after ± are expanded uncertainties.

Details: for speed of sound / mass density: 101.33 kPa, Liquid; for speed of sound: Pulse-echo method; for mass density: Vibrating tube method; for surface tension liquid-gas: Drop volume

SMILES | speed of sound (288.15 K) [m/s] | mass density (288.15 K) [kg/m3] | speed of sound (293.15 K) [m/s] | mass density (293.15 K) [kg/m3] | surface tension liquid-gas (298.15 K) [mN/m] | speed of sound (298.15 K) [m/s] | mass density (298.15 K) [kg/m3] | speed of sound (303.15 K) [m/s] | mass density (303.15 K) [kg/m3] | speed of sound (308.15 K) [m/s] | mass density (308.15 K) [kg/m3]
Cc1ccc(C)cc1 [1,4-dimethylbenzene] | 1350.7 ± 1.6 | 865.2 ± 0.24 | 1329.6 ± 1.6 | 860.9 ± 0.24 | 27.43 ± 0.2 | 1308.4 ± 1.5 | 856.58 ± 0.24 | 1287.4 ± 1.5 | 852.21 ± 0.24 | 1266.4 ± 1.5 | 847.83 ± 0.24
COC(=O)OC [dimethyl carbonate] | 1240.7 ± 1.5 | 1076.64 ± 0.3 | 1218.1 ± 1.5 | 1070.01 ± 0.29 | 28.08 ± 0.21 | 1195.1 ± 1.5 | 1063.39 ± 0.28 | 1173.2 ± 1.5 | 1056.78 ± 0.28 | 1151.5 ± 1.5 | 1050.15 ± 0.27
CCCCCCCC [octane] | 1213.6 ± 1.5 | 706.58 ± 0.25 | 1192.9 ± 1.5 | 702.57 ± 0.25 | 20.99 ± 0.17 | 1171.9 ± 1.5 | 698.55 ± 0.25 | 1150.9 ± 1.5 | 694.48 ± 0.25 | 1130.3 ± 1.5 | 690.42 ± 0.25
